Where “and” joins values, the source holds several entries; their conditions need not be identical. Equal values may be shown once. Inconclusive results and toxic doses are left out. No stated cut-off is given here; in the data, active means T/C of 150% or more; inactive means T/C below 125%.
Tested on: L1210 leukemia ip in BDF1 mice, survival T/C
Experiment: NCI In Vivo Anticancer Drug Screen. Data for tumor model L1210 Leukemia (intraperitoneal) in B6D2F1 (BDF1) mice
Conditions: endpoint: mean survival time, higher = longer survival
In short: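 Tumor was transplanted into mice, which were then dosed with test compound or vehicle alone. Survival was recorded for each group, and the treated figure was expressed relative to the control figure.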

[1] = dose: 100.0 mg/kg/injection, schedule: Q04DX003 (ip), vehicle: saline with Tween-80
[2] = dose: 200.0 mg/kg/injection, schedule: Q04DX003 (ip), vehicle: saline with Tween-80
[3] = dose: 400.0 mg/kg/injection, schedule: Q04DX003 (ip), vehicle: saline with Tween-80
[4] = dose: 100.0 mg/kg/injection, schedule: Q01DX009 (ip), vehicle: Klucel (hydroxypropylcellulose) (HPC)
[5] = dose: 100.0 mg/kg/injection, schedule: Q04DX003 (ip), vehicle: Klucel (hydroxypropylcellulose) (HPC)
[6] = dose: 200.0 mg/kg/injection, schedule: Q01DX009 (ip), vehicle: Klucel (hydroxypropylcellulose) (HPC)
[7] = dose: 200.0 mg/kg/injection, schedule: Q04DX003 (ip), vehicle: Klucel (hydroxypropylcellulose) (HPC)
[8] = dose: 400.0 mg/kg/injection, schedule: Q01DX009 (ip), vehicle: Klucel (hydroxypropylcellulose) (HPC)
[9] = dose: 400.0 mg/kg/injection, schedule: Q04DX003 (ip), vehicle: Klucel (hydroxypropylcellulose) (HPC)
[10] = dose: 100.0 mg/kg/injection, schedule: Q01DX001 (ip), vehicle: Klucel (hydroxypropylcellulose) (HPC)
[11] = dose: 200.0 mg/kg/injection, schedule: Q01DX001 (ip), vehicle: Klucel (hydroxypropylcellulose) (HPC)
[12] = dose: 50.0 mg/kg/injection, schedule: Q01DX001 (ip), vehicle: saline
[13] = dose: 100.0 mg/kg/injection, schedule: Q01DX001 (ip), vehicle: saline
[14] = dose: 25.0 mg/kg/injection, schedule: Q04DX003 (ip), vehicle: Klucel (hydroxypropylcellulose) (HPC)
[15] = dose: 400.0 mg/kg/injection, schedule: Q01DX001 (ip), vehicle: Klucel (hydroxypropylcellulose) (HPC)

Measured: T/C

OC1C(O)C(O)C(O)C(O)C1O (centres undefined)
inactive: dose: 100.0 mg/kg/injection, schedule: Q01DX009 (ip), vehicle: saline 97 % of control | [1] 104 % of control | dose: 100.0 mg/kg/injection, schedule: Q04DX003 (ip), vehicle: saline 98 % of control | dose: 200.0 mg/kg/injection, schedule: Q01DX009 (ip), vehicle: saline 92 % of control | [2] 98 % of control | dose: 200.0 mg/kg/injection, schedule: Q04DX003 (ip), vehicle: saline 98 % of control | dose: 375.0 mg/kg/injection, schedule: Q01DX001 (ip), vehicle: carboxymethylcellulose (CMC) 100 % of control | dose: 400.0 mg/kg/injection, schedule: Q01DX009 (ip), vehicle: saline 97 % of control | [3] 98 % of control | dose: 400.0 mg/kg/injection, schedule: Q04DX003 (ip), vehicle: saline 107 % of control | dose: 750.0 mg/kg/injection, schedule: Q01DX001 (ip), vehicle: carboxymethylcellulose (CMC) 98 % of control | dose: 1500.0 mg/kg/injection, schedule: Q01DX001 (ip), vehicle: carboxymethylcellulose (CMC) 98 % of control

CCOC(=O)C(NC(=O)OCc1ccccc1)(OCc1ccccc1)C(C)C (centres undefined)
inactive: dose: 100.0 mg/kg/injection, schedule: Q01DX009 (ip), vehicle: saline with Tween-80 105 % of control | dose: 200.0 mg/kg/injection, schedule: Q01DX009 (ip), vehicle: saline with Tween-80 98 % of control | dose: 400.0 mg/kg/injection, schedule: Q01DX009 (ip), vehicle: saline with Tween-80 100 % of control

C[N+]1(C)C2CCCCC1CC(=O)C2
inactive: dose: 10.0 mg/kg/injection, schedule: Q01DX001 (ip), vehicle: saline 96 % of control | dose: 20.0 mg/kg/injection, schedule: Q01DX001 (ip), vehicle: saline 98 % of control | dose: 40.0 mg/kg/injection, schedule: Q01DX001 (ip), vehicle: saline 95 % of control

ON(Cc1ccccc1)Cc1ccccc1
inactive: [4] 98 % of control | [5] 103 % of control | [6] 107 % of control | [7] 102 % of control | [8] 98 % of control | [9] 100 % of control

O=C(O)c1ccccc1C(=O)c1cccc2c(Cl)cccc12
inactive: dose: 50.0 mg/kg/injection, schedule: Q01DX001 (ip), vehicle: Klucel (hydroxypropylcellulose) (HPC) 97 % of control | [10] 92 % of control | [11] 91 % of control

Cn1c(=O)c2c(nc(C3CC=CCC3)n2C)n(C)c1=O (centres undefined)
inactive: dose: 50.0 mg/kg/injection, schedule: Q01DX001 (ip), vehicle: other 98 % of control

Clc1cc(Cl)c2nc(Cl)c3ccccc3c2c1
inactive: [4] 100 % of control | [5] 95 % of control | [6] 92 % of control | [7] 90 % of control | [8] 100 % of control | [9] 93 % of control

C/C(=N\N=C(/C)c1ccc2cc3c(cc2c1)OCO3)c1ccc2cc3c(cc2c1)OCO3
inactive: dose: 75.0 mg/kg/injection, schedule: Q01DX001 (ip), vehicle: saline 97 % of control | dose: 150.0 mg/kg/injection, schedule: Q01DX001 (ip), vehicle: saline 92 % of control | dose: 300.0 mg/kg/injection, schedule: Q01DX001 (ip), vehicle: saline 89 % of control

CC[N+](C)(CC)CC[N+]1(C)CC2CC=CCC2C1 (centres undefined)
inactive: dose: 222.0 mg/kg/injection, schedule: Q01DX Z (ip), vehicle: saline 94 % of control | dose: 333.0 mg/kg/injection, schedule: Q01DX Z (ip), vehicle: saline 97 % of control | dose: 500.0 mg/kg/injection, schedule: Q01DX Z (ip), vehicle: saline 94 % of control

CC(=O)N1C(=O)NC(=O)C1(C)c1cccs1 (centres undefined)
inactive: [1] 104 % of control | [2] 98 % of control | [3] 105 % of control

O=c1[nH]cnc2c1cnn2C1OC(CO)C(O)C1O (centres undefined)
inactive: dose: 12.5 mg/kg/injection, schedule: Q01DX005 (ip), vehicle: water 92 % of control | dose: 25.0 mg/kg/injection, schedule: Q01DX005 (ip), vehicle: water 106 % of control | dose: 50.0 mg/kg/injection, schedule: Q01DX005 (ip), vehicle: water 97 % of control | dose: 100.0 mg/kg/injection, schedule: Q01DX005 (ip), vehicle: water 108 % of control | dose: 200.0 mg/kg/injection, schedule: Q01DX005 (ip), vehicle: water 93 % of control

Oc1ccc(/C=N/Nc2nnc(N/N=C/c3ccc(O)c(O)c3)c3ccccc23)cc1O
inactive: [12] 97 % of control | [13] 92 % of control | dose: 200.0 mg/kg/injection, schedule: Q01DX001 (ip), vehicle: saline 97 % of control | dose: 400.0 mg/kg/injection, schedule: Q01DX001 (ip), vehicle: saline 97 % of control

CC(O)C(O)C(O)C(O)C(c1ccc(Cl)cc1)c1ccc(Cl)cc1 (centres undefined)
inactive: [12] 104 % of control | [13] 98 % of control

Cc1ccc2c(n1)Nc1ncnc(N)c1S2
inactive: dose: 12.5 mg/kg/injection, schedule: Q04DX003 (ip), vehicle: Klucel (hydroxypropylcellulose) (HPC) 96 % of control | [14] 108 % of control

CCCC[N+]12CC=C3COC(=O)C(C)(O)C(C)(O)C(C)C(=O)OC(CC1)C32 (centres undefined)
inactive: dose: 50.0 mg/kg/injection, schedule: Q01DX009 (ip), vehicle: Klucel (hydroxypropylcellulose) (HPC) 92 % of control | [4] 95 % of control | [6] 100 % of control

NS(=O)(=O)c1ccc(NC(=O)Nc2ccccc2Cl)cc1
inactive: [10] 90 % of control | [4] 100 % of control and 90 % of control | dose: 100.0 mg/kg/injection, schedule: Q04DX002 (ip), vehicle: Klucel (hydroxypropylcellulose) (HPC) 97 % of control and 108 % of control | [5] 106 % of control | [11] 88 % of control | [6] 94 % of control and 103 % of control | dose: 200.0 mg/kg/injection, schedule: Q04DX002 (ip), vehicle: Klucel (hydroxypropylcellulose) (HPC) 93 % of control and 108 % of control | [7] 106 % of control | [15] 92 % of control | [8] 98 % of control and 90 % of control | dose: 400.0 mg/kg/injection, schedule: Q04DX002 (ip), vehicle: Klucel (hydroxypropylcellulose) (HPC) 108 % of control and 92 % of control | [9] 105 % of control

CCOC(=O)c1[nH]c(C)c(CCC(=O)O)c1C
inactive: dose: 12.0 mg/kg/injection, schedule: Q04DX003 (ip), vehicle: Klucel (hydroxypropylcellulose) (HPC) 95 % of control | [14] 98 % of control | dose: 50.0 mg/kg/injection, schedule: Q04DX003 (ip), vehicle: Klucel (hydroxypropylcellulose) (HPC) 104 % of control | [10] 97 % of control | [5] 103 % of control | [11] 97 % of control | [7] 98 % of control | [15] 101 % of control

CCCCCCCCCC(CCCCCCCCC)NCC(C)OC(=O)c1ccc([N+](=O)[O-])cc1 (centres undefined)
inactive: dose: 75.0 mg/kg/injection, schedule: Q01DX001 (ip), vehicle: acetone 95 % of control | dose: 150.0 mg/kg/injection, schedule: Q01DX001 (ip), vehicle: acetone 95 % of control | dose: 300.0 mg/kg/injection, schedule: Q01DX001 (ip), vehicle: acetone 94 % of control

CCOC(=O)C12CCC=C1N(S(=O)(=O)N(C)C)c1ccc(NS(=O)(=O)N(C)C)cc12 (centres undefined)
inactive: dose: 45.0 mg/kg/injection, schedule: Q04DX003 (ip), vehicle: Klucel (hydroxypropylcellulose) (HPC) 105 % of control | dose: 65.0 mg/kg/injection, schedule: Q04DX003 (ip), vehicle: Klucel (hydroxypropylcellulose) (HPC) 105 % of control | [10] 97 % of control | [5] 105 % of control and 120 % of control | [11] 104 % of control | [7] 89 % of control | [15] 98 % of control | [9] 97 % of control

BrC(c1ccccc1)C(Br)c1ccccc1 (centres undefined)
inactive: [4] 86 % of control | [5] 92 % of control | [6] 96 % of control | [7] 94 % of control | [8] 91 % of control | [9] 100 % of control

CC1=CC(C)(C)NC(=S)N1c1ccc(O)cc1
inactive: dose: 75.0 mg/kg/injection, schedule: Q01DX009 (ip), vehicle: saline with Tween-80 92 % of control | dose: 150.0 mg/kg/injection, schedule: Q01DX009 (ip), vehicle: saline with Tween-80 101 % of control | dose: 300.0 mg/kg/injection, schedule: Q01DX009 (ip), vehicle: saline with Tween-80 90 % of control
